These results are taken from patent publication US9932354B2, “Imidazo-oxadiazole and imidazo-thiadiazole derivatives” (Ares Trading S.A., priority 2012, dated 2018).

A value given as a limit tells only on which side of the number the result lay.

Experiment [1] relates to Amyloid-β peptide release (Aβ42), HEK cells overexpressing APP (HEK-APP). The experiment can be described thus: Amyloid-β peptide release (Aβ42) assay, AlphaLISA on supernatant of HEK-APP cells. In kind it is cell-based. Particulars: Homo sapiens, HEK293, 24 h incubation with compound, read-out: Ab42 IC50 Ranges. The procedure: (§1) Amyloid-β Peptide Release (Aβ42 & AβTotal) Assay to Determine IC50 Values.
(§2) Compounds are dissolved in and diluted in 100% DMSO and incubated with HEK-APP cells for 24 h at 37° C. in 5% CO2. The supernatant from HEK-APP cells are mixed with antibodies: for Aβ42 detection: AlphaLISA Amyloid-β 1-42 Kit (Perkin Elmer AL203L) Anti-Amyloid β1-42-specific antibody acceptor beads, biotinylated anti-Amyloid-“β1-42” antibody and streptavidin (SA) donor beads diluted in AlphaLISA buffer (to the instructions of the supplier). For Aβ total detection: Custom Anti-Amyloid-βtotal acceptor beads (6E10 acceptor beads), biotinylated anti-Amyloid “β1-42” antibody (Perkin Elmer AL203L) and streptavidin (SA) donor beads diluted in AlphaLISA buffer (to the instructions of the supplier). After addition of supernatant to the antibody mix, the assay is incubated for 4.5 h. Amyloid-β peptide release (Aβ42 & AβTotal) is measured with a Pherastar FS (BMG) multimode reader using the alphascreen module.
A general note: Bead proximity is the source of the signal in Alpha formats.

Experiment [2] concerns Amyloid-β peptide release (AβTotal), HEK cells overexpressing APP (HEK-APP). The experiment can be described thus: Amyloid-β peptide release (AβTotal) assay, AlphaLISA on supernatant of HEK-APP cells. Format: cell-based. As to conditions: ratio Abtot vs Ab42, HEK-APP cells, 24 h. The procedure: as §1, §2

Broadly, the IC50 is the concentration that inhibits the measured activity by half.

For the compound `Cc1ccccc1CC(=O)Nc1ccc(-c2nn3c(C)ncc3o2)cc1` [Example 60, N-[4-(5-Methyl-imidazo[5,1-b][1,2,4]oxadiazol-2-yl)-phenyl]-2-o-tolyl-acetamide], the IC50 in experiment [1] was 1000 to 2200 nM. Further, the Abtot/Ab42 selectivity ranges entry in experiment [2] is “c (c: 50 fold > selectivity ≥ 10 fold)”.

`Cc1ncc2oc(-c3ccc(NC(=O)Cc4ccc(Oc5ccccc5)cc4)cn3)nn12` [Example 78, N-[6-(5-Methyl-imidazo[5,1-b][1,2,4]oxadiazol-2-yl)-pyridin-3-yl]-2-(4-phenoxy-phenyl)-acetamide]: the half-inhibitory concentration (IC50) in experiment [1] fell in the range of 1000 to 2200 nM. The Abtot/Ab42 selectivity ranges entry in experiment [2] is reported as “c (c: 50 fold > selectivity ≥ 10 fold)”. On the same counts, the results for `Cc1ncc2oc(-c3ccc(NC(=O)Cc4ccc(-c5ccccc5)cc4)cc3)nn12` [Example 56, 2-Biphenyl-4-yl-N-[4-(5-methyl-imidazo[5,1-b][1,2,4]oxadiazol-2-yl)-phenyl]-acetamide] are 100 to 500 nM and “a (a: selectivity ≥ 100 fold)”. As to `Cc1ncc2oc(-c3ccc(NC(=O)Nc4cccc(C(F)(F)F)c4)cc3)nn12` [Example 52, 1-[4-(5-Methyl-imidazo[5,1-b][1,2,4]oxadiazol-2-yl)-phenyl]-3-(3-trifluoromethyl-phenyl)-urea], the 50% inhibitory concentration (IC50) in experiment [1] lay in the range of 1000 to 2200 nM. Also, the Abtot/Ab42 selectivity ranges result in experiment [2] is recorded as “d (d: 10 fold > selectivity)”. On the same counts, the results for `Cc1ncc2oc(-c3ccc(NC(=O)Cc4cc(F)ccc4C(F)(F)F)cc3)nn12` [Example 66, 2-(5-fluoro-2-(trifluoromethyl)phenyl)-N-(4-(5-methylimidazo [5,1-b][1,3,4]oxadiazol-2-yl)phenyl)acetamide] are 1000 to 2200 nM and “c (c: 50 fold > selectivity ≥ 10 fold)”. Regarding `Cc1ncc2oc(-c3ccc(NC(=O)Cc4cccc5ccccc45)cc3)nn12` [Example 71, N-(4-(5-methylimidazo[5,1-b][1,3,4]oxadiazol-2-yl)phenyl)-2-(naphthalen-1-yl)acetamide], in experiment [1], the half-maximal inhibitory concentration (IC50) lay within 500 to 1000 nM. For the same compound, the Abtot/Ab42 selectivity ranges result in experiment [2] was “b (b: 100 fold > selectivity ≥ 50 fold)”. On the same counts, the results for `Cc1ncc2sc(C(=O)N3CCCCC3Cc3ccccc3)nn12` (stereo not shown) [Example 117, (2-Benzyl-piperidin-1-yl)-(5-methyl-imidazo[5,1-b][1,3,4]thiadiazol-2-yl)-methanone] are 1000 to 2200 nM and “d (d: 10 fold > selectivity)”.

On to `Cc1ncc2oc(-c3ccc(NC(=O)Cc4ccc(Cl)cc4)cc3)nn12` [Example 47, 2-(4-Chloro-phenyl)-N-[4-(5-methyl-imidazo[5,1-b] [1,2,4]oxadiazol-2-yl)-phenyl]-acetamide], for which, in experiment [1], the half-maximal inhibitory concentration (IC50) lay in the range of 500 to 1000 nM. Further, in experiment [2], the Abtot/Ab42 selectivity ranges result is on record as “c (c: 50 fold > selectivity ≥ 10 fold)”. On the same counts, the results for `Cc1ncc2sc(C(=O)N3CCC[C@@H]3c3ccc(Br)cc3)nn12` [Example 113, (R)-(2-(4-bromophenyl)pyrrolidin-1-yl)(5-methylimidazo[5,1-b][1,3,4]thiadiazol-2-yl)methanone] are less than 100 nM and “d (d: 10 fold > selectivity)”. On the same counts, the results for `Cc1ncc2oc(-c3ccc(NC(=O)Cc4csc5ccc(Cl)cc45)cc3)nn12` [Example 73, 2-(5-chlorobenzo[b]thiophen-3-yl)-N-(4-(5-methylimidazo[5,1-b] [1,3,4]oxadiazol-2-yl)phenyl)acetamide] are 1000 to 2200 nM and “c (c: 50 fold > selectivity ≥ 10 fold)”. For `Cc1ccc(C)c(CC(=O)Nc2ccc(-c3nn4c(C)ncc4o3)cc2)c1` [Example 50], in that order: 500 to 1000 nM and “c (c: 50 fold > selectivity ≥ 10 fold)”. With `Cc1cc(C)cc(CC(=O)Nc2ccc(-c3nn4c(C)ncc4o3)cc2)c1` [Example 51, 2-(3,5-Dimethyl-phenyl)-N-[4-(5-methyl-imidazo[5,1-b][1,2,4]oxadiazol-2-yl)-phenyl]-acetamide], in experiment [1], the IC50 lay in the range of 500 to 1000 nM. Besides, in experiment [2], the Abtot/Ab42 selectivity ranges result is on record as “c (c: 50 fold > selectivity ≥ 10 fold)”.

For `CCc1ncc2oc(-c3ccc(C(=O)NCc4cccc5ccccc45)cc3)nn12` [Example 21], in experiment [1], the IC50 lay in the range of 1000 to 2200 nM. The Abtot/Ab42 selectivity ranges result in experiment [2] is recorded as “c (c: 50 fold > selectivity ≥ 10 fold)”. Regarding `Cc1ncc2sc(C(=O)N(C)CCc3ccccc3)nn12` [Example 97, 5-Methyl-imidazo[5,1-b][1,3,4]thiadiazole-2-carboxylic acid methyl-phenethyl-amide], in experiment [1], the concentration for half-maximal inhibition (IC50) was in the range of 500 to 1000 nM. For the same compound, the Abtot/Ab42 selectivity ranges entry in experiment [2] is “d (d: 10 fold > selectivity)”. For `Cc1ncc2oc(-c3ccc(NC(=O)Cc4cccc5ccccc45)cn3)nn12` [Example 13, N-[6-(5-Methyl-imidazo[5,1-b][1,2,4]oxadiazol-2-yl)-pyridin-3-yl]-2-naphthalen-1-yl-acelamide], in that order: 1000 to 2200 nM and “c (c: 50 fold > selectivity ≥ 10 fold)”. For `Cc1ncc2oc(-c3ccc(NC(=O)Cc4ccc(C(C)(C)C)cc4)cc3)nn12` [Example 57, 2-(4-tert-Butyl-phenyl)-N-[4-(5-methyl-imidazo[5,1-b][1,2,4]oxadiazol-2-yl)-phenyl]-acetamide], in that order: 500 to 1000 nM and “b (b: 100 fold > selectivity ≥ 50 fold)”. On the same counts, the results for `Cc1ccc(C)c(CC(=O)Nc2ccc(-c3nn4c(C)ncc4o3)cc2C)c1` [Example 38] are 100 to 500 nM and “a (a: selectivity ≥ 100 fold)”. For `CCOc1ccccc1C(C)NC(=O)c1nn2c(C)ncc2s1` (stereo not shown) [Example 90, 5-Methyl-imidazo[5,1-b][1,3,4]thiadiazole-2-carboxylic acid [1-(2-ethoxy-phenyl)-ethyl]-amide], the IC50 in experiment [1] lay in the range of 500 to 1000 nM. Further, the Abtot/Ab42 selectivity ranges entry in experiment [2] is listed as “d (d: 10 fold > selectivity)”. Take `Cc1cc(-c2nn3c(C)ncc3o2)ccc1NC(=O)Cc1cccc(Cl)c1` [Example 43, 2-(3-chlorophenyl)-N-(2-methyl-4-(5-methylimidazo[5,1-b][1,3,4]oxadiazol-2-yl)phenyl)acetamide]: the half-maximal inhibitory concentration (IC50) in experiment [1] lay within 1000 to 2200 nM. In experiment [2], the Abtot/Ab42 selectivity ranges result was “c (c: 50 fold > selectivity ≥ 10 fold)”. On the same counts, the results for `Cc1cc(-c2nn3c(C)ncc3o2)ccc1NC(=O)Cc1cccc(C(F)(F)F)c1` [Example 41, N-(2-methyl-4-(5-methylimidazo[5,1-b][1,3,4]oxadiazol-2-yl)phenyl)-2-(3-(trifluoromethyl)phenyl)acetamide] are 500 to 1000 nM and “b (b: 100 fold > selectivity ≥ 50 fold)”.

`Cc1ncc2oc(-c3ccc(NC(=O)Nc4ccc(OC(F)(F)F)cc4)cc3)nn12` [Example 59, 1-[4-(5-Methyl-imidazo[5,1-b][1,2,4]oxadiazol-2-yl)-phenyl]-3-(4-trifluoromethoxy-phenyl)-urea]: the IC50 in experiment [1] lay within 1000 to 2200 nM. In addition, in experiment [2], the Abtot/Ab42 selectivity ranges entry was “c (c: 50 fold > selectivity ≥ 10 fold)”. On the same counts, the results for `Cc1cccc(CC(=O)Nc2ccc(-c3nn4c(C)ncc4o3)cc2)c1` [Example 2, N-[4-(5-Methyl-imidazo[5,1-b][1,2,4]oxadiazol-2-yl)-phenyl]-2-m-tolyl-acetamide] are 1000 to 2200 nM and “c (c: 50 fold > selectivity ≥ 10 fold)”.

As for `Cc1ncc2oc(-c3ccc(Nc4nc5n(n4)CCCC5c4ccc(Cl)cc4Cl)cc3)nn12` (stereo not shown) [Example 25, [8-(2,4-Dichloro-phenyl)-5,6,7,8-tetrahydro-[1,2,4]triazolo[1,5-a]pyridin-2-yl]-[4-(5-methyl-imidazo[5,1-b][1,2,4]oxadiazol-2-yl)-phenyl]-amine], the half-inhibitory concentration (IC50) in experiment [1] lay within 500 to 1000 nM. Also, in experiment [2], the Abtot/Ab42 selectivity ranges result is reported as “c (c: 50 fold > selectivity ≥ 10 fold)”. On the same counts, the results for `CCN(Cc1ccccc1)C(=O)c1nn2c(C)ncc2s1` [Example 99, 5-Methyl-imidazo[5,1-b][1,3,4]thiadiazole-2-carboxylic acid benzyl-ethyl-amide] are 1000 to 2200 nM and “d (d: 10 fold > selectivity)”. As for `Cc1cc(-c2nn3c(C)ncc3o2)ccc1NC(=O)C(C)c1cccc(C(F)(F)F)c1` (stereo not shown) [Example 46, N-(2-methyl-4-(5-methylimidazo[5,1-b][1,3,4]oxadiazol-2-yl)phenyl)-2-(3-(trifluoromethyl)phenyl)propanamide], the concentration for half-maximal inhibition (IC50) in experiment [1] lay in the range of 500 to 1000 nM. The Abtot/Ab42 selectivity ranges entry in experiment [2] is “b (b: 100 fold > selectivity ≥ 50 fold)”. On the same counts, the results for `Cc1ncc2oc(-c3ccc(Nc4nc5n(n4)CCCC5c4ccc(F)cc4)cc3)nn12` (stereo not shown) [Example 24, 8-(4-fluorophenyl)-N-(4-(5-methylimidazo[5,1-b][1,3,4]oxadiazol-2-yl)phenyl)-5,6,7,8-tetrahydro-[1,2,4]triazolo[1,5-a]pyridin-2-amine] are 500 to 1000 nM and “c (c: 50 fold > selectivity ≥ 10 fold)”. Regarding `COc1c(F)ccc(CC(=O)Nc2ccc(-c3nn4c(C)ncc4o3)cc2)c1F` [Example 68, 2-(2,4-difluoro-3-methoxyphenyl)-N-(4-(5-methylimidazo[5,1-b][1,3,4]oxadiazol-2-yl)phenyl)acetamide], in experiment [1], the 50% inhibitory concentration (IC50) fell in the range of 500 to 1000 nM. In experiment [2], the Abtot/Ab42 selectivity ranges result is “b (b: 100 fold > selectivity ≥ 50 fold)”. For `Cc1ncc2sc(C(=O)N3CCCC3c3ccc(Cl)cc3)nn12` (stereo not shown) [Example 118, [2-(4-Chloro-phenyl)-pyrrolidin-1-yl]-(5-methyl-imidazo[5,1-b][1,3,4]thiadiazol-2-yl)-methanone], the IC50 in experiment [1] fell in the range of 100 to 500 nM.
